Results as given in US12576155B2, “Senolytic and antiinflammatory prodrugs and methods of use thereof” (priority 2019, dated 2026).

Test system: SARS-CoV-2-infected rhesus macaques
Assay: SARS-CoV-2-infected rhesus macaques, late-stage SSK1 treatment (i.v. once a day 22 to 28 dpi)
Type: in vivo
Experimental: To evaluate the therapeutic effect of SSK1 on the recovery period of SARS-CoV-2 infection, we used nine rhesus macaques of three different ages as reported before (Lu et al., 2020). All the animals were inoculated with total 4.75 ml of 10^6 pfu/ml SARS-CoV-2 intratracheally (4.00 ml), intranasally (0.50 ml) and on conjunctiva (0.25 ml). The nine rhesus macaques were divided into three groups according to the treatments, which included vehicle (DMSO), low dosage (0.5 mg/kg) and high dosage (2.0 mg/kg) of SSK1, respectively. Each group randomly selected one young, one adult and one old monkey. The final grouping is presented as following: the vehicle-treated group, RM1 (young), RM2 (adult) and RM3 (old); 0.5 mg/kg SSK1-treated group, RM4 (young), RM5 (adult) and RM6 (old); 2.0 mg/kg SSK1-treated group, RM7 (young), RM8 (adult) and RM9 (old). […] For each group, vehicle (DMSO), low dosage SSK1 (0.5 mg/kg) and high dosage SSK1 (2.0 mg/kg) were administrated intravenously (i.v.) once a day from 22 to 28 dpi. Animals were anesthetized and clinical exams were performed daily. We recorded the body weight, anal temperature on each examination day and collected blood samples for hematology analysis as well as swabs form nasal, throat and rectal for virus quantitative detection. The monkeys were euthanized on 34, 35 and 36 dpi. We collected the bronchoalveolar lavage fluid (BALF) with 10 ml PBS (Gibco, Cat #21-040-CVC) and recorded the pathological changes of all organs. Tissue samples collected from all organs and the BALF were further analyzed.
100 mg/ml SSK1 dissolved in DMSO (Life Science, Cat #1087C114) was mixed in 95% PBS (Gibco, Cat #21-040-CVC), 5% Tween-80 (BioFroxx, Cat #1716) and administrated intravenously (i.v.) at the dosage of 0.5 mg/kg or 2.0 mg/kg to monkeys at the indicated time point (the injection finished within 5-10 minutes). DMSO mixed in 95% PBS (Gibco, Cat #21-040-CVC), 5% Tween-80 (BioFroxx, Cat #1716) was intravenously (i.v.) injected as vehicle.
The blood samples were collected from saphenous vein of hind limb of anaesthetized monkeys using 5 ml blood collection tube containing sodium citrate anti-coagulant for further analysis. For Complete Blood Count (CBC), Auto Hematology Analyzer (BC-5000 Vet, Mindray, China) was used. The white blood cells-related numbers and percentages of Neutrophil (Neu), Lymphocyte (Lym), Monocyte (Mon), Eosinophil (Eos), Basophil (Bas), and platelet-related items, platelet count (PLT), mean platelet volume (MPV), platelet distribution width (PDW), plateletcrit (PCT) were analyzed. For serum biochemical analysis, the blood was clotted for 30 min at 4° C. and centrifugated at 3,000×rpm for 15 min to obtain serum. The serum was used to analysis the alanine transaminase (ALT), aspartate transaminase (AST), alkaline phosphatase (ALP), uric acid (UA) and creatinine (CRE-E) by Chemistry Analyzer (Mindray, BS-350E).
The serum and BALF samples were collected for analysis of cytokine and chemokine. Concentration of granulocyte colony-stimulating factor (G-CSF), granulocyte-macrophage colony-stimulating factor (GM-CSF), interferon (IFN)-γ, interleukin (IL)-1 receptor antagonist, IL-1β, IL-2, IL-4, IL-5, IL-6, IL-8, IL-10, IL-12/23 (p40), IL-13, IL-15, IL-17, IL-18, monocyte chemotactic protein (MCP)-1, macrophage inflammatory protein (MIP)-1α, MIP-1β, soluble CD40-ligand (sCD40L), transforming growth factor (TGF)-α, tumor necrosis factor (TNF)-α, vascular endothelial growth factor (VEGF) were determined using the Non-Human Primate Cytokine MILLIPLEX map 23-plex kit (Millipore, Cat #PRCYTOMAG-40K) according to the manufacturer's instructions.
Autopsies of the rhesus macaques were performed according to a standard protocol. After the dissection, the major organs were grossly examined. The lung tissues were harvested, fixed in 10% neutral-buffered formalin solution, embedded in paraffin and 2 μm tissue sections were prepared. […]

## CC(=O)OCC1O[C@@H](Oc2ccc(COC(=O)Nc3ccn([C@@H]4O[C@H](CO)C(O)C4(F)F)c(=O)n3)cc2[N+](=O)[O-])C(OC(C)=O)C(OC(C)=O)[C@H]1OC(C)=O (some centres unmarked) [SSK1]
RM4 young 1-year, 0.5 mg/kg
  Body weight change (32 dpi vs 22 dpi %): +25.00%
RM5 adult 5-year, 0.5 mg/kg
  Body weight change (32 dpi vs 22 dpi %): −3.45%
RM6 old 17-year, 0.5 mg/kg
  Body weight change (32 dpi vs 22 dpi %): −1.25%
RM7 young 1-year, 2.0 mg/kg
  Body weight change (32 dpi vs 22 dpi %): +12.50%
RM8 adult 5-year, 2.0 mg/kg
  Body weight change (32 dpi vs 22 dpi %): +9.68%
RM9 old 18-year, 2.0 mg/kg
  Body weight change (32 dpi vs 22 dpi %): +1.82%
SSK1 0.5 or 2.0 mg/kg, 22 to 32 dpi
  Body weight loss: effectively prevented body weight loss
SSK1-treated animals vs vehicle
  Pulmonary histology assessment (histologic lesions): reduction in histologic lesions
SSK1-treated group vs vehicle
  Diseased phenotype of lung sections (thickened alveolar septum, edema, hemorrhage; H&E staining): greatly improved
SSK1-treated old monkeys, especially at 2 mg/kg
  Inflammatory cytokines in blood including IL-6, IL-8, IL-10, IL-15, TGF-α and MCP1: reduced at 28 dpi compared with 21 dpi
All high-dosage (2.0 mg/kg) SSK1-treated monkeys
  Serum level of IL-18: increased level
All six SSK1-treated monkeys
  New lung lesions at necropsy: only found one exhibiting new lung lesions
Especially at high dosages, in the elderly group
  Macrophage infiltration in lung (CD68 immunohistochemistry): significantly reduced macrophage infiltration
Treated monkeys
  Adverse effects: did not observe any adverse effects
